The structures appear in SMILES notation.

In patent US12612386B2, “Heteroaryl-triazole compounds as pesticides” (Bayer Aktiengesellschaft, priority 2020, dated 2026) one finds Emax data, which are given here for two molecules.

In experiment [1] the test system is green peach aphid (Myzus persicae). Briefly: whole plant or invertebrate. Format: in vivo. To be noted: 120 h, MYZUPE oral, 0.16 ppm, 5 dat (Table 3), read-out: % Efficacy. The procedure: Solvent: 100 parts by weight acetone
To produce a suitable preparation of active compound, 1 part by weight of active compound is mixed with the stated amount of solvent, and the concentrate is diluted with water to the desired concentration.
50 μL compound solution is filled in microtiter plates and 150 μL IPL41 insect medium (33%+15% sugar) is added to obtain a total volume of 200 μL per well. Afterwards the plates are sealed with parafilm through which a mixed population of the green peach aphid (Myzus persicae) can suck on the compound preparation.
After 5 days mortality in % is determined. 100% means all aphids have been killed and 0% means none of the aphids have been killed.
Myzus persicae—Oral Test (MYZUPE Oral)

For experiment [2], the system named is fall armyworm larvae (Spodoptera frugiperda). Nature of the experiment: whole plant or invertebrate. It counts as in vivo. Conditions: 168 h, SPODFR, 20 g ai/ha, 7 dat (Table 3), read-out: % Efficacy. Summed up: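 Percent kill of Spodoptera frugiperda caterpillars, read 7 days after infestation of dried, spray-treated Zea mays leaf pieces. Spray preparation: compound in acetone plus dimethylformamide, diluted with emulsifier-containing water.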

For the molecule `C[C@H](NC(=O)c1cc(Cl)cc(S(C)(=O)=O)c1)c1ncnn1-c1cc(C#N)ccn1` [I-148 Known from WO 2019197468, reference compound], in experiment [1], the Emax at 0.16 ppm was 0%. For the same molecule, in experiment [2], the Emax at 20 g/ha amounted to 33%.

As for `C[C@H](NC(=O)c1cc(Cl)cc(S(C)(=O)=O)c1)c1ncnn1-c1ccncn1` [I-146 Known from WO 2019197468, reference compound], in experiment [1], the Emax at 0.16 ppm is 0%. For the same molecule, in experiment [2], the Emax at 20 g/ha was 33%.
